Source: US11161845B2, “Pyrrolopyridine-aniline compounds for treatment of dermal disorders” (Nflection Therapeutics, Inc., priority 2017, dated 2021)

Experiments:
[1] = tested on: P-gp (human MDR1); assay: MDCK-MDR1 bi-directional transport assay; details: dog; for Papp A→B at 1 h, 5 μM / Papp B→A at 1 h, 5 μM: MDCK-MDR1, Papp
Experimental: (§1) MDCK-MDR1 is a stable-transfected cell line originating from MDCK cells, with over-expression of human MDR1 gene. The cell line is widely used for the identification and characterization of P-gp substrates and inhibitors.
(§2) MDCK-MDR1 cells were plated into 96-well Millipore Millicell-96 plates at 7,500 cells/75 μL/well and incubated for three days at 37° C. with 5% CO2. Cells were washed with Hank's Balanced Salt Solution (HBSS) with 5 mM HEPES for 30 minutes before starting the experiment. Test compound solutions were prepared by diluting DMSO stock into HBSS buffer, resulting in a final DMSO concentration of 0.1%. Prior to the experiment, cell monolayer integrity was verified by […] electrical resistance (TEER). Transport experiment was initiated by adding test compounds to the apical (75 μL) or basal (250 μL) side. Transport plates were incubated at 37° C. in a humidified incubator with 5% CO2. Samples were taken from the donor and acceptor compartments after one hour and analyzed by liquid chromatography with tandem mass spectrometry (LC/MS/MS).
(§3) Digoxin was used as reference control.
(§4) Apparent permeability (Papp) values were calculated using the following equation: Papp=(dQ/dt)/A/Co; where dQ/dt is the initial rate of amount of test compound transported across cell monolayer, A is the surface area of the filter membrane, and Co is the initial concentration of the test compound, calculated for each direction using a 4-point calibration curve by LC/MS/MS.
(§5) Net flux ratio between the two directional transports was calculated by the following equation: Ratio=Papp, B-A/Papp, A-B; where Papp, B-A and Papp, A-B represent the apparent permeability of test compound from the basal-to-apical and apical-to-basal side of the cellular monolayer, respectively.
(§6) Recovery was calculated based on the compound concentration at the end of the experiment, compared to that at the beginning of the experiment, adjusted for volumes.
(§7) A net flux ratio greater than two was considered a positive result for substrate determination. […] If the addition of a known P-gp inhibitor to the experiment reduces the net flux ratio by a significant amount (more than 50% reduction or reduces the ratio to close to unity), it is likely that the compound tested is a P-gp substrate.

[2] = tested on: MDCK-MDR1 cells; assay: MDCK-MDR1 bi-directional transport assay; details: 5 μM
Experimental: as §1, §2, §3, §4, §5, §6, §7

[3] = biological target: T1, MEK1 (Homo sapiens, UniProt Q02750); assay: MEK inhibition assay, Biological Example 1a (33P-ATP, P81 filter-binding); details: read-out: Assay 1: biochemical MEK IC50
T1 construct: N-terminal His-tagged recombinant human full length protein; His (N); purchased Invitrogen PV3303; host or cells: insect cells
T1 sequence (Q02750 whole entry): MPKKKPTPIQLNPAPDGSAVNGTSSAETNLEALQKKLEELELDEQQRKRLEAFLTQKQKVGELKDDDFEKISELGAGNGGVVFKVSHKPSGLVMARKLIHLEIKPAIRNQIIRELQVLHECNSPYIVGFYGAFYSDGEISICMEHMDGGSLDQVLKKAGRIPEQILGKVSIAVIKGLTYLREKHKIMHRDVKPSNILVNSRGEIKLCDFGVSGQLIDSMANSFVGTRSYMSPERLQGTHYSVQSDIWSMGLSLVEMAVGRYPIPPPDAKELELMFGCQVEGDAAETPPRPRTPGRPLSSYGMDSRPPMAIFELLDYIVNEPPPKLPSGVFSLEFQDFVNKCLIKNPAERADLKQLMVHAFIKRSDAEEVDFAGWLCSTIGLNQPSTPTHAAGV
Experimental: MEK1 inhibitory activity of compounds were tested using the following procedure. […] Activated in vitro by RAF1. MW=49.2 kDa, GenBank Accession No. NP_002746. • Substrate: 5 μM ERK2 (K52R), • Kinase-dead mutant, (GenBank Accession No. NM_0011949), aa2-358 with N-terminal His6 tag, MW=43.63 kDa, expressed in E. coli.
The substrate was prepared in freshly prepared Reaction Buffer. The kinase was delivered into the substrate solution and gently mixed. Test compounds were delivered in 100% DMSO into the kinase reaction mixture by Acoustic technology (Echo550; nanoliter range), and incubated for 20 min at room temperature. ^33P-ATP was delivered into the reaction mixture to initiate the reaction. The reaction mixture was incubated for 2 hours at room temperature. Kinase activity was detected by P81 filter-binding method.

[4] = S9 stability assay, human liver S9 fraction; assay type: in vitro ADME; details: for CLint: known MEK compounds; for microsomal CLint at 1 μM / half-life at 1 μM: pH 7.4, Table 1, human liver S9 fraction; for microsomal CLint at 1 μM: read-out: CLint; for half-life at 1 μM: read-out: Liver S9 t1/2
Experimental: Compounds were assessed for metabolic stability in human skin by assessing their rate of disappearance from human S9 skin fraction. Similarly, compounds were assessed for metabolic stability in human liver by assessing their rate of disappearance from human S9 liver fraction. The protocol below can be used to assess the difference between skin and hepatic metabolism.
The assay was carried out in 96-well microtiter plates at 37° C. Reaction mixtures (25 μL) contained a final concentration of 1 μM test compound, 2 mg/mL liver or skin S9 protein, and 1 mM NADPH in buffer (100 mM potassium phosphate, pH 7.4 buffer with 1 mM EDTA, 3 mM MgCl2). At each of the time points (0, 15, 30, and 60 minutes), 150 μL of quench solution (100% acetonitrile with 0.1% formic acid) with internal standard was transferred to each well. Besides the zero minute controls, mixtures containing the same components except the NADPH were also prepared as the negative control. Verapamil or testosterone was included as a positive control to verify assay performance. Plates were sealed and centrifuged at 4° C. for 15 minutes at 4000 rpm. The supernatant was transferred to fresh plates for LC/MS/MS analysis.
All samples were analyzed on LC/MS/MS using an AB Sciex API 4000 instrument, coupled to a Shimadzu LC-20AD LC Pump system. Analytical samples were separated using a Waters Atlantis T3 dC18 reverse phase HPLC column (20 mm×2.1 mm) at a flow rate of 0.5 mL/min. The mobile phase consisted of 0.1% formic acid in water (solvent A) and 0.1% formic acid in 100% acetonitrile (solvent B).
The extent of metabolism was calculated as the disappearance of the test compound, compared to the 0-min control reaction incubations. Initial rates were calculated for the compound concentration and used to determine t1/2 values and subsequently, the intrinsic clearance, CLint=(0.693) (1/t1/2 (min)) (mL incubation/mg of S9 protein).

[5] = Compound levels in neck/back skin (LCMS), in vivo mouse model; set-up: species or system mice; details: topical 1% trametinib
Experimental: (§8) Week 4 (Experiment end): Skin and blood were collected right before the last morning dose (N=3), 1 hour (N=3 mice), and 2 hours (N=3 mice) after final application; Blood draw: Plasma compound levels (LCMS); Skin biopsy: formalin fixed for histology and p-ERK staining, flash frozen for Western analysis and skin compound levels (LCMS)
Skin biopsy and GI tract sampling: Skin was wiped down with 100% ethanol and a 1 cm^2 biopsy was obtained from compound application site each mouse at the 25 day end of experiment (except as noted below). The skin was biopsied prior to final dose from 3 mice, 1 hour after last compound application from 3 mice, 2 hours after last compound application from 3 mice. Half of the specimen were immediately flash frozen for LCMS analysis and Western Blot Analysis. Half of the specimen was fixed for 24 hours in 10% formalin and then transferred to ethanol for immunohistochemistry. Gastrointestinal tract was also formalin fixed overnight then transferred to 70% ETOH for storage.
(§9) Compound level analysis: Liquid chromatography with mass spectrometry method (LCMS) was used to detect compound levels in the skin and plasma. Tissues were preprocessed prior to LCMS as follows. Tissues were minced and incubated with collagenase and then finally homogenized using the stainless steel beads prior to LCMS analysis. Calibration curves and a QC test were run with each assay.

[6] = Plasma LCMS compound levels, in vivo mouse model; set-up: species or system mice; details: for concentration at 1 h: male, C57BL/6J, mouse, plasma; for Plasma LCMS Compound Levels: pre-dose (16 h)
Experimental: These mice were also shaved weekly.
as §8, §9

[7] = tested on: C57BL/6J mice; assay: In vivo mouse model, skin and systemic toxicity of topical application (survival)
Description: This study was designed to assess the skin toxicity and gross systemic toxicity of twice daily topical administration of a compound disclosed herein, as well as to evaluate the effect of metabolic lability on systemic toxicity.
Study Objective: The primary objective of this study was to characterize the skin and systemic toxicity of twice daily topical application of a compound disclosed herein, applied for 25 days in mice. Secondary objectives included determination of the 25-day skin and plasma compound levels of formulations containing three dosages of compound of Ex. 2 after application to 10% body surface area (BSA) murine skin; assessment of gross systemic toxicity from the application of compound of Ex. 2 after twice daily application to 10% BSA murine skin for 25 days; and determination of the correlation of skin and plasma compound levels with associated toxicity.
Mice: 8 week old male C57BL/6J mice (Jackson Laboratories) were shaved prior to start of study and weekly.
Compound application: Compounds were dissolved in a 50% DMSO/50% propyelene glycol vehicle. 0.125 mL of the following compounds were applied to the shaved dorsal back of mice (10% BSA) twice daily for 5 days per week for a total of 24 days. The second dose was applied 8 hours after first morning dose. All mice were shaved once per week at application site.
Oral trametinib was dissolved in 0.5% hydroxypropyl methylcellulose (Sigma-Aldrich) and 0.2% Tween-80 (Sigma-Aldrich) and administered by oral gavage (0.2 mL bolus or 10 mg/kg) once daily 5 days per week. These mice were also shaved weekly.
Weekly (Weeks 0-4): body weight measurements weekly, starting week 0 until experiment end; photographs of dorsal back and face of each mouse weekly, starting week 0 until experiment end; skin; and gross stool analysis assessed weekly for heme color, starting week 0 until experiment end.
The study planned for the mice to be sacrificed at Day 25.
Kaplan Meier curves were analyzed to determine progression to skin toxicity for each arm as compared with vehicle. T-test were used to compare compound levels at each dosage. Ki-67+ cells and p-ERK expression were also assessed on a cellular level via immunostaining. Western blots informed semi-quantitative changes in p-ERK expression.

## C[C@H]1O[C@@H](O[C@H]2[C@@H](O)C[C@H](O[C@H]3[C@@H](O)C[C@H](O[C@H]4CC[C@@]5(C)[C@H](CC[C@@H]6[C@@H]5C[C@@H](O)[C@]5(C)[C@@H](C7=CC(=O)OC7)CC[C@]65O)C4)O[C@@H]3C)O[C@@H]2C)C[C@H](O)[C@@H]1O [Digoxin]
[1]; MDCK-MDR1
  efflux ratio at 1 h, 5 μM: 9.7
[1]; A-B Mean
  Papp A→B at 1 h, 5 μM: 1.5 ×10⁻⁶ cm/s
[1]; A-B Value, single values
  Papp A→B at 1 h, 5 μM: 1.3 ×10⁻⁶ cm/s
[1]; B-A Mean
  Papp B→A at 1 h, 5 μM: 14.3 ×10⁻⁶ cm/s
[1]; B-A Value, single values
  Papp B→A at 1 h, 5 μM: 14.6 ×10⁻⁶ cm/s
[2]
  Recover Rate: 96%
[2]; single values
  Papp, A-B Value: 1.6 ×10⁻⁶ cm/s
  Papp, B-A Value: 14.1 ×10⁻⁶ cm/s

## C#Cc1ccc(Nc2c(C(=O)NOCCO)c3cccnc3n2C)c(F)c1 [Example 3, 2-((4-Ethynyl-2-fluorophenyl)amino)—N-(2-hydroxyethoxy)-1-methyl-1H-pyrrolo[2,3-b]pyridine-3-carboxamide]
[3]
  IC50: 2450 nM

## O=C(NOCC1CC1)c1ccc(F)c(F)c1Nc1ccc(I)cc1Cl [Example C1]
[4]
  CLint: 10.37 μL/min/mg protein
  microsomal CLint at 1 μM: 10.4 µL/min/mg
  half-life at 1 μM: 0.55 h

## O=C(NOC[C@H](O)CO)c1ccc(F)c(F)c1Nc1ccc(I)cc1F [Example C2]
[4]
  CLint: 1.02 μL/min/mg protein
  microsomal CLint at 1 μM: 1.02 µL/min/mg
  half-life at 1 μM: 5.67 h

## Cn1cnc2c(F)c(Nc3ccc(Br)cc3F)c(C(=O)NOCCO)cc21 [Example C3]
[4]
  CLint: 1.25 μL/min/mg protein
  microsomal CLint at 1 μM: 1.25 µL/min/mg
  half-life at 1 μM: 4.62 h

## Cn1cnc2c(F)c(Nc3ccc(Br)cc3Cl)c(C(=O)NOCCO)cc21 [Example C4]
[4]
  CLint: 2.50 μL/min/mg protein
  microsomal CLint at 1 μM: 2.5 µL/min/mg
  half-life at 1 μM: 2.3 h

## O=C(NOCCO)c1ccc2cncn2c1Nc1ccc(I)cc1F [Example C5]
[4]
  CLint: 6.98 μL/min/mg protein
  microsomal CLint at 1 μM: 6.98 µL/min/mg
  half-life at 1 μM: 0.833 h

## CC(=O)Nc1cccc(-n2c(=O)n(C3CC3)c(=O)c3c(Nc4ccc(I)cc4F)n(C)c(=O)c(C)c32)c1 [Example C6]
[4]
  CLint: 0.86 μL/min/mg protein
  microsomal CLint at 1 μM: 0.86 µL/min/mg
  half-life at 1 μM: 6.7 h

## O=C(NC[C@@H](O)CO)c1ccncc1Nc1ccc(I)cc1F [Example C7]
[4]
  CLint: 1.29 μL/min/mg protein
  microsomal CLint at 1 μM: 1.29 µL/min/mg
  half-life at 1 μM: 4.47 h

## CC(=O)Nc1cccc(-n2c(=O)n(C3CC3)c(=O)c3c(Nc4ccc(I)cc4F)n(C)c(=O)c(C)c32)c1 [trametinib, reference compound]
[5]; 1 h
  Compound Levels in Neck/Back Skin: 3626.06 µg/mL
[5]; pre-dose (16 h)
  Compound Levels in Neck/Back Skin: 4520.39 µg/mL
[6]; 10 mg/kg, oral trametinib
  concentration at 1 h: 0.0751 µg/mL
[6]; topical 1% trametinib
  concentration at 1 h: 2.81 µg/mL
  Plasma LCMS Compound Levels: 1339.33 ng/mL
[6]; oral trametinib
  Plasma LCMS Compound Levels: 39.93 ng/mL
[7]; oral trametinib 0.75 mg/kg daily gavage 5x/week, Day 0
  Survival Rates: 100%
[7]; oral trametinib 0.75 mg/kg daily gavage 5x/week, Day 3
  Survival Rates: 90%
[7]; oral trametinib 0.75 mg/kg daily gavage 5x/week, Day 6
  Survival Rates: 70%
[7]; oral trametinib 0.75 mg/kg daily gavage 5x/week, Day 9
  Survival Rates: 70%
[7]; oral trametinib 0.75 mg/kg daily gavage 5x/week, Day 12
  Survival Rates: 70%
[7]; oral trametinib 0.75 mg/kg daily gavage 5x/week, Day 15
  Survival Rates: 70%
[7]; oral trametinib 0.75 mg/kg daily gavage 5x/week, Day 18
  Survival Rates: 70%
[7]; oral trametinib 0.75 mg/kg daily gavage 5x/week, Day 21
  Survival Rates: 70%
[7]; oral trametinib 0.75 mg/kg daily gavage 5x/week, Day 24
  Survival Rates: 70%
[7]; oral trametinib 0.75 mg/kg daily gavage 5x/week, Day 25
  Survival Rates: 70%
[7]; topical Trametinib 1%, twice daily 5 days per week, 10% BSA, Day 0
  Survival Rates: 100%
[7]; topical Trametinib 1%, twice daily 5 days per week, 10% BSA, Day 3
  Survival Rates: 100%
[7]; topical Trametinib 1%, twice daily 5 days per week, 10% BSA, Day 6
  Survival Rates: 100%
[7]; topical Trametinib 1%, twice daily 5 days per week, 10% BSA, Day 9
  Survival Rates: 100%
[7]; topical Trametinib 1%, twice daily 5 days per week, 10% BSA, Day 12
  Survival Rates: 100%
[7]; topical Trametinib 1%, twice daily 5 days per week, 10% BSA, Day 15
  Survival Rates: 80%
[7]; topical Trametinib 1%, twice daily 5 days per week, 10% BSA, Day 18
  Survival Rates: 0%
[7]; topical Trametinib 1%, twice daily 5 days per week, 10% BSA, Day 21
  Survival Rates: 0%
[7]; topical Trametinib 1%, twice daily 5 days per week, 10% BSA, Day 24
  Survival Rates: 0%
[7]; topical Trametinib 1%, twice daily 5 days per week, 10% BSA, Day 25
  Survival Rates: 0%
[7]; topically-applied 1%, Day 18
  mortality / weight loss: found dead, or had to be sacrificed due to unacceptable weight loss
